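Exposure lasted 48 hours, with cells grown in 96-well plates and compounds tested at five concentrations. At the GI50, growth is halved.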 The source made the active and inactive calls. No stated cut-off is given here; in the data, active = GI50 up to about 1.1 µM and inactive = higher.
How the values were obtained:
Assay in all cases: DTP human tumour cell line panel, 48 h
PC-3 = test system: PC-3
DU-145 = test system: DU-145
TK-10 = test system: TK-10
Hs-578T = test system: Hs-578T
SF-539 = test system: SF-539
SNB-75 = test system: SNB-75
IGROV-1 = test system: IGROV-1
UACC-257 = test system: UACC-257
NCI-H460 = test system: NCI-H460
MCF7 = test system: MCF7
CCRF-CEM = test system: CCRF-CEM
UO-31 = test system: UO-31
A498 = test system: A498
NCI-H226 = test system: NCI-H226
HL-60 = test system: HL-60
OVCAR-3 = test system: OVCAR-3
MOLT-4 = test system: MOLT-4
RXF 393 = test system: RXF 393
OVCAR-8 = test system: OVCAR-8
SF-268 = test system: SF-268
SK-OV-3 = test system: SK-OV-3
EKVX = test system: EKVX
HCT-116 = test system: HCT-116
SK-MEL-2 = test system: SK-MEL-2
NCI-H522 = test system: NCI-H522
HCC 2998 = test system: HCC 2998
SF-295 = test system: SF-295
ACHN = test system: ACHN
HOP-62 = test system: HOP-62
HOP-92 = test system: HOP-92
M14 = test system: M14
SK-MEL-28 = test system: SK-MEL-28
SK-MEL-5 = test system: SK-MEL-5
RPMI-8226 = test system: RPMI-8226
NCI/ADR-RES = test system: NCI/ADR-RES
U-251 = test system: U-251
SR = test system: SR
LOX IMVI = test system: LOX IMVI
NCI-H23 = test system: NCI-H23
786-0 = test system: 786-0
T47D = test system: T47D
K562 = test system: K562
MDA-MB-231 = test system: MDA-MB-231
MDA-N = test system: MDA-N
OVCAR-5 = test system: OVCAR-5
SW-620 = test system: SW-620
HT-29 = test system: HT-29
HCT-15 = test system: HCT-15
MDA-MB-435 = test system: MDA-MB-435
SN12C = test system: SN12C
KM12 = test system: KM12
A549 = test system: A549
OVCAR-4 = test system: OVCAR-4
COLO 205 = test system: COLO 205
UACC-62 = test system: UACC-62
SNB-19 = test system: SNB-19

How did the GI50 (PC-3) turn out when CC1=NN(c2cccc(Cl)c2)C(=N/c2nc3ccccc3s2)/C1=C\c1ccc(Cl)cc1 was run?
Its GI50 is 16.4 µM (inactive).

What about the GI50 (DU-145) of the same compound?
The GI50 was 34.2 µM (inactive).

What about the GI50 (TK-10) of the same compound?
The GI50 was 26.4 µM (inactive).

What about the GI50 (Hs-578T) of the same compound?
Its GI50 is 23 µM (inactive).

What about the GI50 (SF-539) of the same compound?
The GI50 was 18.4 µM (inactive).

What about the GI50 (SNB-75) of the same compound?
The GI50 was 26.4 µM (inactive).

What about the GI50 (IGROV-1) of the same compound?
Its GI50 is 13.5 µM (inactive).

What about the GI50 (UACC-257) of the same compound?
The GI50 was 20.7 µM (inactive).

And the GI50 (NCI-H460)?
Its GI50 is 17.2 µM (inactive).

And the GI50 (MCF7)?
Its GI50 is 22.2 µM (inactive).

What about the GI50 (CCRF-CEM) of the same compound?
The GI50 was 26.1 µM (inactive).

What about the GI50 (UO-31) of the same compound?
Its GI50 is 23.9 µM (inactive).

What about the GI50 (A498) of the same compound?
Its GI50 is 22.2 µM (inactive).

What about the GI50 (NCI-H226) of the same compound?
Its GI50 is 21.2 µM (inactive).

And the GI50 (HL-60)?
The GI50 was 22.4 µM (inactive).

What about the GI50 (OVCAR-3) of the same compound?
The GI50 was 21.7 µM (inactive).

And the GI50 (MOLT-4)?
Its GI50 is 24.4 µM (inactive).

And the GI50 (RXF 393)?
The GI50 was 20.3 µM (inactive).

And the GI50 (OVCAR-8)?
Its GI50 is 19.8 µM (inactive).

What about the GI50 (SF-268) of the same compound?
Its GI50 is 19.3 µM (inactive).

And the GI50 (SK-OV-3)?
The GI50 was 36.4 µM (inactive).

What about the GI50 (EKVX) of the same compound?
The GI50 was 33.2 µM (inactive).

What about the GI50 (HCT-116) of the same compound?
Its GI50 is 16.9 µM (inactive).

And the GI50 (SK-MEL-2)?
The GI50 was 17.9 µM (inactive).

And the GI50 (NCI-H522)?
The GI50 was 18.7 µM (inactive).

What about the GI50 (HCC 2998) of the same compound?
Its GI50 is 16.4 µM (inactive).

And the GI50 (SF-295)?
Its GI50 is 23.4 µM (inactive).

What about the GI50 (ACHN) of the same compound?
The GI50 was 24.3 µM (inactive).

And the GI50 (HOP-62)?
The GI50 was 21.5 µM (inactive).

And the GI50 (HOP-92)?
Its GI50 is 17.4 µM (inactive).

What about the GI50 (M14) of the same compound?
The GI50 was 23.8 µM (inactive).

What about the GI50 (SK-MEL-28) of the same compound?
Its GI50 is 20.8 µM (inactive).

What about the GI50 (SK-MEL-5) of the same compound?
Its GI50 is 15.8 µM (inactive).

What about the GI50 (RPMI-8226) of the same compound?
The GI50 was 37.2 µM (inactive).

What about the GI50 (NCI/ADR-RES) of the same compound?
The GI50 was 22.5 µM (inactive).

And the GI50 (U-251)?
Its GI50 is 14.8 µM (inactive).

And the GI50 (SR)?
The GI50 was 24.7 µM (inactive).

And the GI50 (LOX IMVI)?
Its GI50 is 18.2 µM (inactive).

And the GI50 (NCI-H23)?
The GI50 was 18.7 µM (inactive).

And the GI50 (786-0)?
Its GI50 is 18.8 µM (inactive).

What about the GI50 (T47D) of the same compound?
The GI50 was 33.6 µM (inactive).

And the GI50 (K562)?
Its GI50 is 29 µM (inactive).

What about the GI50 (MDA-MB-231) of the same compound?
The GI50 was 20.7 µM (inactive).

What about the GI50 (MDA-N) of the same compound?
The GI50 was 23.4 µM (inactive).

And the GI50 (OVCAR-5)?
The GI50 was 22.6 µM (inactive).

And the GI50 (SW-620)?
The GI50 was 19.9 µM (inactive).

What about the GI50 (HT-29) of the same compound?
Its GI50 is 17.9 µM (inactive).

And the GI50 (HCT-15)?
Its GI50 is 14.2 µM.

Which GI50 (PC-3) does the source give for CC(=O)Oc1c(C)cc2c(c1C)C(C)CN2C(C)=O (stereo not drawn) here?
The GI50 was > 100 µM (inactive).

What about the GI50 (DU-145) of the same compound?
Its GI50 is > 100 µM (inactive).

What about the GI50 (TK-10) of the same compound?
The GI50 was > 100 µM (inactive).

What about the GI50 (Hs-578T) of the same compound?
Its GI50 is > 100 µM (inactive).

And the GI50 (MDA-MB-435)?
Its GI50 is > 100 µM (inactive).

What about the GI50 (SF-539) of the same compound?
Its GI50 is > 100 µM (inactive).

And the GI50 (SN12C)?
The GI50 was > 100 µM (inactive).

And the GI50 (SNB-75)?
The GI50 was 94.2 µM (inactive).

What about the GI50 (IGROV-1) of the same compound?
The GI50 was > 100 µM (inactive).

And the GI50 (UACC-257)?
The GI50 was > 100 µM (inactive).

And the GI50 (NCI-H460)?
The GI50 was > 100 µM (inactive).

What about the GI50 (MCF7) of the same compound?
The GI50 was > 100 µM (inactive).

What about the GI50 (CCRF-CEM) of the same compound?
Its GI50 is > 100 µM (inactive).

What about the GI50 (UO-31) of the same compound?
Its GI50 is > 100 µM (inactive).

And the GI50 (KM12)?
The GI50 was > 100 µM (inactive).

And the GI50 (A498)?
Its GI50 is > 100 µM (inactive).

And the GI50 (NCI-H226)?
Its GI50 is > 100 µM (inactive).

What about the GI50 (HL-60) of the same compound?
Its GI50 is > 100 µM (inactive).

What about the GI50 (A549) of the same compound?
The GI50 was > 100 µM (inactive).

What about the GI50 (OVCAR-3) of the same compound?
The GI50 was > 100 µM (inactive).

What about the GI50 (MOLT-4) of the same compound?
The GI50 was > 100 µM (inactive).

What about the GI50 (RXF 393) of the same compound?
The GI50 was > 100 µM (inactive).

What about the GI50 (OVCAR-8) of the same compound?
The GI50 was > 100 µM (inactive).

And the GI50 (SF-268)?
Its GI50 is > 100 µM (inactive).

And the GI50 (SK-OV-3)?
Its GI50 is > 100 µM (inactive).

And the GI50 (EKVX)?
Its GI50 is > 100 µM (inactive).

What about the GI50 (HCT-116) of the same compound?
The GI50 was > 100 µM (inactive).

What about the GI50 (OVCAR-4) of the same compound?
Its GI50 is > 100 µM (inactive).

And the GI50 (SK-MEL-2)?
Its GI50 is > 100 µM (inactive).

And the GI50 (NCI-H522)?
The GI50 was > 100 µM (inactive).

What about the GI50 (HCC 2998) of the same compound?
The GI50 was > 100 µM (inactive).

And the GI50 (SF-295)?
The GI50 was > 100 µM (inactive).

And the GI50 (ACHN)?
Its GI50 is > 100 µM (inactive).

What about the GI50 (HOP-62) of the same compound?
Its GI50 is > 100 µM (inactive).

And the GI50 (HOP-92)?
Its GI50 is > 100 µM (inactive).

What about the GI50 (M14) of the same compound?
Its GI50 is > 100 µM (inactive).

What about the GI50 (SK-MEL-28) of the same compound?
The GI50 was > 100 µM (inactive).

And the GI50 (COLO 205)?
The GI50 was > 100 µM (inactive).

What about the GI50 (UACC-62) of the same compound?
Its GI50 is > 100 µM (inactive).

And the GI50 (SK-MEL-5)?
The GI50 was > 100 µM (inactive).

And the GI50 (RPMI-8226)?
Its GI50 is > 100 µM (inactive).

What about the GI50 (NCI/ADR-RES) of the same compound?
Its GI50 is > 100 µM (inactive).

What about the GI50 (U-251) of the same compound?
The GI50 was > 100 µM (inactive).

And the GI50 (SNB-19)?
The GI50 was > 100 µM (inactive).

What about the GI50 (LOX IMVI) of the same compound?
The GI50 was > 100 µM (inactive).

And the GI50 (NCI-H23)?
Its GI50 is > 100 µM (inactive).

And the GI50 (786-0)?
Its GI50 is > 100 µM (inactive).

And the GI50 (T47D)?
The GI50 was > 100 µM (inactive).

What about the GI50 (K562) of the same compound?
Its GI50 is > 100 µM (inactive).

What about the GI50 (MDA-MB-231) of the same compound?
Its GI50 is > 100 µM (inactive).

And the GI50 (MDA-N)?
Its GI50 is > 100 µM (inactive).

What about the GI50 (OVCAR-5) of the same compound?
Its GI50 is > 100 µM (inactive).

What about the GI50 (SW-620) of the same compound?
The GI50 was > 100 µM (inactive).

And the GI50 (HT-29)?
Its GI50 is > 100 µM (inactive).

And the GI50 (HCT-15)?
Its GI50 is greater than 100 µM.

From ChEMBL document CHEMBL1201862, “PubChem BioAssay data set” (2004)
